The values that follow come from patent publication US4845129A, “Diaryl substituted cyclopentane and cyclopentene derivatives” (Sandoz Pharm. Corp., priority 1988, dated 1989).

The term IC50 denotes the concentration at which inhibition is half-maximal. Low readings indicate inhibition by little substance, high ones a need for much substance. The term ED50 denotes the midpoint of the dose-response relation. The low end stands for an effect at a small dose, the high end for a need for a large dose.

The test system of assay [1] is PAF-induced hypotension. As to the kind of experiment: PAF-induced hypotension (Test D). The format is in vivo, Wistar rats. The procedure:
Male Wistar rats, weighing approximately 300 gm, are anesthetized and their carotid arteries cannulated to enable their diastolic and systolic arterial blood pressure measurements to be recorded. PAF is then administered intravenously at either 100 or 500 ng/kg, and the blood pressure drop (within 10 sec.) and recovery time required to reach the pre-injection blood pressure level are measured.

The target of assay [2] is T1, Human Platelet PAF Receptor (Homo sapiens, UniProt P25105).
T1 construct: endogenous in cells; host or cells: washed intact platelets from blood of healthy human donors
The experiment in a line: Human Platelet PAF Receptor Assay test (Test A): inhibition of specific binding of [3H]-PAF to platelets. Particulars: inhibition of [3H]-PAF specific binding. The method, then: Human blood is obtained by venipuncture of healthy, human donors into an anti-coagulant mixture containing 3.15% of trisodium citrate and 20 μg/ml of Prostaglandin I2 (PGI2) in a ratio of blood to anti-coagulant of 9:1. Platelet rich plasma (PRP) is prepared by centrifugation (250×g) of the blood for 20 minutes at room temperature. The PRP is then centrifuged […] for 10 minutes at room temperature and the platelet pellet is washed two times with Tris-Tyrode's (TT) solution having a pH of 7.4 and containing 0.25% bovine serum albumin (BSA), and to which has been added PGI2 at a final concentration of […]. The platelets are resuspended at […] in TT/BSA containing 1.4 mM CaCl2.2H2 O and 0.7 mM MgCl2.6H2 O. All of the tests are conducted in duplicate and each of the test compounds is evaluated at concentrations of 100, 500, 1 and 0.1 μM. For each determination, the following solutions are mixed:
500 μl of the above-described platelets;
10 μl of [^3 H]-PAF (40,000 counts per minute (cpm) to a final concentration of […]); and either
10 μl of the test compound at 50× the desired final concentration,
10 μl of vehicle (total bound), or
10 μl of 1.85×10^-5 M cold PAF (non-specifically bound).
Each mixture is allowed to incubate at room temperature for one hour, after which time the reaction is terminated by the addition of 500 μl of ice cold TT/BSA and centrifugation (900×g) at 4° C. for 10 minutes. The resultant supernatant is aspirated into scintillation vials and the pellet is washed with […]. of ice cold TT/BSA and centrifuged (900×g) at 4° C. for 10 minutes. The supernatants are then aspirated into the same scintillation vials as before and 10 ml. of Scintiverse II (a liquid scintillation cocktail) is added to and mixed therewith. The pellets are resuspended in 500 μl of Scintiverse II and mixed well. An additional 2 ml. of Scintiverse II is then added to the vials and, after mixing, the vials are counted for 1 minute in a liquid scintillation spectrometer. The amount of specific binding is calculated as the difference in cpm between the total bound [^3 H]-PAF and non-specifically bound [^3 H]-PAF. The percent inhibition of specific binding is determined by dividing the cpm specifically bound in the presence of the test compound by the cpm specifically bound in total, multiplying by 100 and then subtracting from 100. An IC50 (50% inhibitory concentration) value is generated by evaluating the test compound over the full concentration range.

The subject of assay [3] is PAF-mediated extravasation. As to the kind of experiment: PAF-induced Extravasation test (Test C), hemoconcentration. The format is in vivo, guinea pigs. The settings on record: Cavia porcellus, PAF 100 ng/kg i.v., hematocrit increase.
The subject of assay [4] is PAF-mediated broncho-constriction (PAF-induced Pulmonary Inflation Pressure increase). The experiment in a line: PAF-induced Pulmonary Inflation Pressure (PIP) Increase test (Test B). Format: in vivo, guinea pigs. The settings on record: Cavia porcellus, PAF 100 ng/kg i.v., maximal PIP. The method, then:
Male guinea pigs, weighing between 300 and 400 gm, are anesthetized, after which time trachea tube, carotid and jugular catheters are inserted. The test animal is then force ventilated employing a small animal Harvard respirator and the resistance to lung inflation (PIP) is measured utilizing a pressure transducer and recorder. The test compound is administered orally at 30 minutes prior to, intravenously (jugular) at 5 minutes prior to, or intraarterially at 1 to 5 minutes prior to the introduction of PAF. The PAF (C18 -Sandoz, Hanover) is dissolved in Tris-Tyrode's bovine serum albumin buffer and administered intravenously (jugular) at 100 ng/kg. Any blood pressure measurements taken are recorded from a transducer attached to the carotid catheter.

Assay [5] concerns PAF-induced human platelet aggregation. As to the kind of experiment: Platelet Aggregation Inhibition Assay test (PAIA test): inhibition of PAF-induced human platelet aggregation in vitro. The format is cell-based. The settings on record: 0.1 h, platelet rich plasma, AUC over 6 min. The method, then: All of the compounds of formula I are useful as platelet activating factor inhibitors as indicated by their ability to inhibit platelet activating factor (PAF)-induced human platelet aggregation in vitro according to the Platelet Aggregation Inhibition Assay test (PAIA test) as follows:
Human subjects are kept aspirin free for one week and fasted overnight. Platelet rich plasma (PRP) is prepared by centrifugation (200×g.) of freshly drawn blood, anti-coagulated with 0.38% sodium citrate (final concentration). Platelet count is adjusted to 250,000 per μl using platelet poor plasma (PPP) obtained by a second centrifugation (700×g.) of the blood sample. An aliquot (0.38 ml) of the PRP is dispensed into cuvettes and maintained at room temperature (22° C.) until used (but for not more than two hours). The PRP-containing cuvettes are incubated at 37° C. and stirred at 900 rpm within a Payton Aggregometer which is activated to follow the light deflection pattern prior to the addition of the test compound. […] The aggregation response is quantitated by determining the area under the curve (AUC). The AUC calculated for the inducing agent alone is considered to be one hundred percent. […]

T1 sequence (P25105 whole entry): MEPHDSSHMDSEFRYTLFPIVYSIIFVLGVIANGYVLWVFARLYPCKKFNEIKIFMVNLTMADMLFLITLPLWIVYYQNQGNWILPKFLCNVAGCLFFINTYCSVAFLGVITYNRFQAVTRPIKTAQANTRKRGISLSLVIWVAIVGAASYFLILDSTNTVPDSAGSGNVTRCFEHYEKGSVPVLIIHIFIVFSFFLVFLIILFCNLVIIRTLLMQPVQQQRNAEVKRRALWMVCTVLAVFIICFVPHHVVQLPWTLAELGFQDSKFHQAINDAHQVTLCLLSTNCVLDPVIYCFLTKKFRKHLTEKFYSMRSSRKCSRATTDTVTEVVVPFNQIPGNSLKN

For the molecule “1-0-alkyl-2-acetyl-sn-glyceryl-3-phosphoryl-choline [PAF]”, the entries for the “decrease in blood pressure” value in assay [1] (PAF 100 ng/kg i.v.) and in assay [1] (PAF 500 ng/kg i.v.) were 30% and 52%, respectively.
In assay [2], `COc1cc([C@H]2CC[C@H](c3cc(OC)c(OC)c(OC)c3)C2O)cc(OC)c1OC` (relative stereo) [Example 3, 1α, 2α, 5β isomer, 2,5-bis(3,4,5-Trimethoxyphenyl)cyclopentanol] gave an IC50 of 4700 nM. The ED50 in assay [3] (po) and in assay [4] (po) was > 20 mg/kg throughout.
Consider `COc1cc([C@H]2CC[C@H](c3cc(OC)c(OC)c(OC)c3)C2OC)cc(OC)c1OC` (relative stereo) [Example 4, (1α,2α,5β)-2,5-bis(Trimethoxyphenyl)-1-methoxy cyclopentane], for which the figures for the half-maximal inhibitory concentration (IC50) in assay [2] (unit printed um) and in assay [5] were 100 nM and 880 nM, respectively. The ED50 in assay [1] (Rattus norvegicus, iv, PAF-induced blood pressure decrease) worked out at 0.12 mg/kg; in assay [3] (i.a.) it was 0.4 mg/kg; in assay [4] (iv, i.a.) it was 0.5 mg/kg.
Consider `COc1cc([C@H]2CC[C@H](c3cc(OC)c(OC)c(OC)c3)C2N)cc(OC)c1OC` (relative stereo) [Example 10, 1α, 2α, 5β isomer, 1-Amino-2,5-bis(3,4,5-trimethoxyphenyl)cyclopentane], for which the IC50 in assay [2] was found to be 2700 nM.
In the case of `COc1cc(C2=CCC(c3cc(OC)c(OC)c(OC)c3)C2=O)cc(OC)c1OC` (stereo not shown) [Example 1, 2,5-bis(3,4,5-Trimethoxyphenyl)cyclopent-2-enone], the IC50 in assay [2] was found to be 6000 nM. Besides, the ED50 came out at 1 mg/kg in assay [3] (i.a.) and 1 mg/kg in assay [4] (iv, i.a.).
For the molecule `COc1cc(C2CCC(c3cc(OC)c(OC)c(OC)c3)C2=O)cc(OC)c1OC` (stereo not shown) [Example 2, 2,5-bis(3,4,5-Trimethoxyphenyl)cyclopentanone], the IC50 in assay [2] amounted to 900 nM. Also, the ED50 in assay [3] (po) and in assay [4] (po) was > 20 mg/kg in each case.
For the molecule `COc1cc([C@H]2CC[C@@H](c3cc(OC)c(OC)c(OC)c3)[C@H]2O)cc(OC)c1OC` [Example 3, 1α, 2α, 5α isomer, 2,5-bis(3,4,5-Trimethoxyphenyl)cyclopentanol], the 50% inhibitory concentration (IC50) in assay [2] was determined as 2800 nM. Besides, the ED50 was > 20 mg/kg in assay [3] (po) and ~20 mg/kg in assay [4] (po).
On to `COc1cc([C@H]2CC[C@@H](c3cc(OC)c(OC)c(OC)c3)[C@H]2OC)cc(OC)c1OC` [Example 5, (1α,2α,5α)-2,5-bis(Trimethoxyphenyl)-1-methoxy cyclopentane], for which, in assay [5], half-maximal inhibition (IC50) required 22000 nM.
Turning to `COc1cc(C2CCC(c3cc(OC)c(OC)c(OC)c3)C2=NO)cc(OC)c1OC` (stereo not shown) [Example 9, 2,5-bis(3,4,5-Trimethoxyphenyl)cyclopentanone, oxime], the IC50 in assay [2] is 450 nM. The ED50 is 0.75 mg/kg in assay [3] (po) and 0.87 mg/kg in assay [4] (po).
`COc1cc([C@H]2CC[C@@H](c3cc(OC)c(OC)c(OC)c3)[C@H]2N)cc(OC)c1OC` [Example 10, 1α, 2α, 5α isomer, 1-Amino-2,5-bis(3,4,5-trimethoxyphenyl)cyclopentane] came in with an IC50 in assay [2] of 22000 nM.
